# Results from paper PMC11229689, “In Vitro Selection of Macrocyclic L-α/D-α/β/γ-Hybrid Peptides Targeting IFN-γ/IFNGR1 Protein–Protein Interaction” (Journal of the American Chemical Society, 2024).
# *1 amine or outer side, *2 acyl side, *3 side chain or, on linkers, in order; H or OH if unused. Where a SMILES comes first, the peptide text is derived from it. Bridges are numbered along the chain shown (N, C = ends). [ ]: non-standard residue; d: D form. Acbc(cis-1,3) = O=C([C@H]1C[C@@H](N[*:1])C1)[*:2]; X1 = O=C([C@@H]1CCC[C@@H]1N[*:1])[*:2]; Orn = NCCC[C@H](N)C(=O)O
# Assays:
# [1] = Serum stability assay (LC/MS); type: in vitro ADME, human; conditions: human serum, 37 °C, LC/MS, relative to internal standard peptide, n = 3; for half-life: human, read-out: half-life in human serum (t1/2) (converted)
# Procedure: Binding affinities of IA1 and IA2 against IFNGR1 were evaluated by surface plasmon resonance (SPR) (Table 1 and SI Figure S6A). […] To investigate the contribution of the N-terminal [yVPβ^1RR] motif and β^1 residue in IA1, three scrambled peptides IA1s1–3 and a variant IA1β^14A were synthesized and evaluated. […] We next evaluated inhibitory activities of IA1 and IA2 against the ligand–receptor PPI between IFN-γ and IFNGR1 using AlphaLISA (Table 1 and SI Figure S7).[37] […] We also determined the serum half-lives of IA1 and IA2, considering peptidase resistance as an important factor for therapeutic peptides.[24] A sample peptide and a peptidase-resistant internal standard peptide were coincubated in human serum at 37 °C, and the relative amount of the remaining sample peptide was estimated by LC/MS. […]
# 10–200 μM synthetic peptide and 5 μM serum-resistant internal standard peptide consisting only of D-amino acids (NH2-PEG5-wstndwstnd-PEG5-CONH2)3 were mixed and incubated in human serum (Cosmo Bio, 12181201) at 37 °C for up to 120 h. At each time point, 4 μL of the mixture was removed and quenched by adding 12 μl methanol. Following centrifugation (15,000 g, 4 °C, 5 min), 10 μL of the supernatant was mixed with 40 μl of 1% (v/v) TFA. Following centrifugation (15,000 g, 4 °C, 5 min), the supernatant was collected for LC/MS analysis, which used a reverse-phase column (ACQUITY UPLC BEH C18, 1.7 μm, 2.1 × 150 mm; Waters) and a Xevo G2-XS QTof system (Waters) with a linear gradient from 1% B to 61% B. Buffer A was water with 0.1% (v/v) formic acid; buffer B was acetonitrile with 0.1% (v/v) formic acid. The percentages of remaining peptides were determined by the peak area integration of the chromatograms. For tandem mass spectrometry, MS/MS spectra were acquired with a 0.2 s scan time, with 10−30 eV collision energy. The obtained LC/MS data was analyzed using MassLynx 4.1 (Waters). […]
# Fc-tagged human IFNGR1 = target: T1, Fc-tagged human IFNGR1 (Homo sapiens, UniProt P15260); assay: Binding kinetics and affinity to IFNGR1 by surface plasmon resonance (SPR); conditions: SPR, 25 °C, 1:1 binding model; for Kd: read-out: KD; for kon: single-cycle kinetics, read-out: ka
# T1 construct: purchased ACROBiosystems
# T1 sequence (P15260 18-489): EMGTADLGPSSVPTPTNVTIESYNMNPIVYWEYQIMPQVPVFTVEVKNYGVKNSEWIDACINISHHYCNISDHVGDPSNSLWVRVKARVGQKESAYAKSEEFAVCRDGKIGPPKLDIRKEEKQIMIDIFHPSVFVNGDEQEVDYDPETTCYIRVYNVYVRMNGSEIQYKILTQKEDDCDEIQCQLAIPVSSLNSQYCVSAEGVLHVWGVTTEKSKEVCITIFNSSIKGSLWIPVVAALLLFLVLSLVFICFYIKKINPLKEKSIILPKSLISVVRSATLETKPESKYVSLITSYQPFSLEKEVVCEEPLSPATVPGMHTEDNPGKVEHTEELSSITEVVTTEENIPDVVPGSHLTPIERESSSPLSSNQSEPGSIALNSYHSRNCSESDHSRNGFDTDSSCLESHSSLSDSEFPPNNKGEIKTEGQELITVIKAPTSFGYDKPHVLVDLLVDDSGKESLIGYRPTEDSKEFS
# Outline: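 Fc-tagged IFNGR1 captured on a protein G chip (1,200–1,600 RU), 25 °C, running buffer 10 mM Tris-HCl pH 8.0, 150 mM NaCl, 0.05% Tween 20, 0.1% DMSO. Single-cycle kinetics with five twofold-diluted peptide concentrations at 30 μL/min. Sensorgrams fitted to a 1:1 binding model for kinetic constants and affinity.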
# [2] = target: T2, IFN-γ/IFNGR1 protein–protein interaction (Homo sapiens, UniProt P15260); assay: IFNGR1 inhibition assay using AlphaLISA; type: biochemical; conditions: four-parameter dose–response fit, n = 3
# T2 construct: purchased ACROBiosystems
# T2 sequence (P15260 18-245 limits assumed): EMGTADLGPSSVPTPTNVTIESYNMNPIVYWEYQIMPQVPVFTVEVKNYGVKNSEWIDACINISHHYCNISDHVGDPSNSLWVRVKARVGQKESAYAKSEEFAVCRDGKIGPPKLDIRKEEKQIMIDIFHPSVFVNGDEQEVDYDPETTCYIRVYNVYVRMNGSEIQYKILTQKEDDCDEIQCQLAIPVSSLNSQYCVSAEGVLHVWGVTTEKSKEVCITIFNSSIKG
# Procedure: IFNGR1 inhibition assay using AlphaLISA
# The inhibitory activity of peptides against IFN-γ/IFNGR1 protein–protein interaction (PPI) was determined by AlphaLISA.5 Peptides, proteins, and beads were diluted in AlphaLISA immunoassay buffer (PerkinElmer, AL000C). 3.6 μL of 5 nM Fc-tagged IFNGR1 and 3.6 μL of synthetic peptides were mixed in AlphaPlate-384 Shallow Well (PerkinElmer) and preincubated at 25 °C for 10 min. 3.6 μL of 15 nM biotin-tagged IFN-γ was then added to the mix and incubated at 25 °C for 20 min. 3.6 μL each human IgG acceptor beads (PerkinElmer) and streptavidin donor beads (PerkinElmer) were added to the above mix and incubated at 25 °C for 30 min in dark place. Emission at 615 nm was measured […]
# by EnSpire Multimode Plate Reader (PerkinElmer). The fraction of bound IFN-γ/IFNGR1 was calculated by the intensity of emission in the presence of peptide divided by that in the absence of […]
# peptide. […]
# Puromycin. Normocin, Blasticidin, Zeocin, and Puromycin were excluded when conducting the experiments. To evaluate the cellular activity of peptides, peptide mixtures were added to 50,000 cells/well in a flat-bottom 96-well plate and pre-incubated for 30 min at 37 °C before stimulation.
# Subsequently, 1 ng/mL of recombinant IFN-γ (InvivoGen) was added to each well in a final reaction volume of 200 μL, followed by incubation for 20 h at 37 °C. 20 μL of supernatants from the induced cells was added to 180 μL Q U A N T I-Blue TM solution (InvivoGen). After further incubation for 3 h at 37 °C, the expression levels of the secreted embryonic alkaline phosphatase (SEAP) were determined by reading the O.D. at 650 nm on a Tecan M1000 PRO microplate reader (Tecan Group) and normalized to the non-treated well. IC50 value was analyzed by a normalized dose-response curve fitting by using GraphPad Prism 9.
# HEK-DualTM IFN-γ cells were used for the cell viability assay. 10,000 cells/well were added to each well in a flat-bottom 96-well plate. After 24 h, peptide mixtures were added to each well in a final volume of 100 μL. After further incubation for 24 h, 10 μL CCK-8 reagent (Dojindo) was added to […]
# HEK-Dual IFN-γ cells = assay: Cell viability assay (CCK-8); conditions: up to 50 μM, 24 h incubation
Structure (SMILES),half-life [1] [h],Kd (Fc-tagged human IFNGR1) [µM],kon (Fc-tagged human IFNGR1) [M⁻¹ s⁻¹],IC50 [2] [µM],half-life in human serum (t1/2) [1] [h],cytotoxicity (HEK-Dual IFN-γ cells)
"CC(C)[C@@H]1NC(=O)[C@@H](Cc2ccc(O)cc2)NC(=O)CSC[C@H](C(N)=O)NC(=O)[C@H](CC(N)=O)NC(=O)[C@H](C)NC(=O)[C@H](CCCNC(=N)N)NC(=O)[C@@H]2CCCN2C(=O)[C@H]([C@@H](C)O)NC(=O)[C@H](CCCNC(=N)N)NC(=O)[C@H](CCCNC(=N)N)NC(=O)[C@H](CO)NC(=O)[C@H](CCCNC(=N)N)NC(=O)[C@H](CCCNC(=N)N)NC(=O)[C@@H]2CCC[C@@H]2NC(=O)[C@@H]2CCCN2C1=O [IB4γ^213A, ^AcyVPβ^1RRSRRTPRA Nc-NH2] ({CH2CO}-[dY]VP[X1]RRSRRTPRAN[dC]-NH2; thioether N-15)",0.46 ± 0.05,0.0082 ± 0.0014,790000 ± 330000,0.0078 ± 0.0016,,
"CC(C)[C@@H]1NC(=O)[C@@H](Cc2ccc(O)cc2)NC(=O)CSC[C@H](C(N)=O)NC(=O)[C@H](CC(N)=O)NC(=O)[C@H]2C[C@H](C2)NC(=O)[C@H](CCCNC(=N)N)NC(=O)[C@@H]2CCCN2C(=O)[C@H]([C@@H](C)O)NC(=O)[C@H](CCCNC(=N)N)NC(=O)[C@H](CCCNC(=N)N)NC(=O)[C@H](CO)NC(=O)[C@H](CCCNC(=N)N)NC(=O)[C@H](CCCNC(=N)N)NC(=O)[C@@H]2CCC[C@@H]2NC(=O)[C@@H]2CCCN2C1=O [IB4γ^213γ^1, ^AcyVPβ^1RRSRRTPRγ^1Nc-NH2] ({CH2CO}-[dY]VP[X1]RRSRRTPR[Acbc(cis-1,3)]N[dC]-NH2; thioether N-15)",0.37,0.0061 ± 0.0022,210000 ± 70000,0.01 ± 0.001,0.71 ± 0.04,
"CC(C)[C@@H]1NC(=O)[C@@H](Cc2ccc(O)cc2)NC(=O)CSC[C@H](C(N)=O)NC(=O)[C@H](CC(N)=O)NC(=O)[C@H]2C[C@H](C2)NC(=O)[C@H](CCCN)NC(=O)[C@@H]2CCCN2C(=O)[C@H]([C@@H](C)O)NC(=O)[C@H](CCCN)NC(=O)[C@H](CCCN)NC(=O)[C@H](CO)NC(=O)[C@H](CCCNC(=N)N)NC(=O)[C@H](CCCNC(=N)N)NC(=O)[C@@H]2CCC[C@@H]2NC(=O)[C@@H]2CCCN2C1=O [IB4γ^213γ^1Orn, ^AcyVPβ^1RRSOOTPOγ^1Nc-NH2] ({CH2CO}-[dY]VP[X1]RRS[Orn][Orn]TP[Orn][Acbc(cis-1,3)]N[dC]-NH2; thioether N-15)",49 ± 4,0.012 ± 0.001,4.7e+06 ± 600000,0.015 ± 0.005,,none of them exhibited notable cytotoxicity up to 50 μM
"CC(C)[C@@H]1NC(=O)[C@@H](Cc2ccc(O)cc2)NC(=O)CSC[C@H](C(N)=O)NC(=O)[C@H](CC(N)=O)NC(=O)[C@H](Cc2c[nH]cn2)NC(=O)[C@H](CCCNC(=N)N)NC(=O)[C@H](C)NC(=O)[C@H]([C@@H](C)O)NC(=O)[C@H](Cc2c[nH]cn2)NC(=O)[C@@H]2CCCN2C(=O)[C@H](CO)NC(=O)[C@H](CCCNC(=N)N)NC(=O)[C@H](CCCNC(=N)N)NC(=O)[C@@H]2CCC[C@@H]2NC(=O)[C@@H]2CCCN2C1=O [IB5γ^211A, ^AcyVPβ^1RRSPHTA RHNc-NH2] ({CH2CO}-[dY]VP[X1]RRSPHTARHN[dC]-NH2; thioether N-15)",1.8 ± 0.6,0.028 ± 0.006,92000 ± 27000,0.014 ± 0.001,,
"CC(C)[C@@H]1NC(=O)[C@@H](Cc2ccc(O)cc2)NC(=O)CSC[C@H](C(N)=O)NC(=O)[C@H](CC(N)=O)NC(=O)[C@H](Cc2c[nH]cn2)NC(=O)[C@H](CCCNC(=N)N)NC(=O)[C@H]2C[C@H](C2)NC(=O)[C@H]([C@@H](C)O)NC(=O)[C@H](Cc2c[nH]cn2)NC(=O)[C@@H]2CCCN2C(=O)[C@H](CO)NC(=O)[C@H](CCCNC(=N)N)NC(=O)[C@H](CCCNC(=N)N)NC(=O)[C@@H]2CCC[C@@H]2NC(=O)[C@@H]2CCCN2C1=O [IB5γ^211γ^1, ^AcyVPβ^1RRSPHTγ^1RHNc-NH2] ({CH2CO}-[dY]VP[X1]RRSPHT[Acbc(cis-1,3)]RHN[dC]-NH2; thioether N-15)",34 ± 2,0.017 ± 0.005,320000 ± 50000,0.027 ± 0.004,,none of them exhibited notable cytotoxicity up to 50 μM
